Measured values as given in publication PMC11523249, “Expanding the antiprotozoal activity and the mechanism of action of n-butyl and iso-butyl ester of quinoxaline-1,4-di-N-oxide derivatives against Giardia lamblia, Trichomonas vaginalis, and Entamoeba histolytica. An in vitro and in silico approach” (Journal of Enzyme Inhibition and Medicinal Chemistry, 2024).
Where two headings read alike, the source gives them in different places.

Tests used:
G. lamblia WB strain = test: In vitro susceptibility assay, G. lamblia trophozoites; format: cell-based, Giardia lamblia
Experimental: (§1) G. lamblia WB strain, T. vaginalis GT3 strain, and E. histolytica strain HM1-IMSS were used in all experiments, all parasitic strains were obtained from the Unidad de Investigación Médica en Enfermedades Infecciosas y Parasitarias, Hospital de Pediatría, Instituto Mexicano del Seguro Social. In vitro susceptibility assays to determine IC50 values were performed using a method previously described. For this, 4 × 10^4 G. lamblia; 6 × 10^3 E. histolytica, or 4 × 10^4 T. vaginalis trophozoites were incubated for 48 h at 37 °C with different concentrations of quinoxaline derivatives T-137 to T-170 (0.5 ng/mL to 10 μg/mL) using dimethyl sulfoxide (DMSO) (0.05%) as solvent. Metronidazole and albendazole were used as positive controls, and parasites in the medium without drugs containing DMSO (0.05%) were included as negative controls. At the end of the incubation period, trophozoites were washed and subcultured for another 48 h in a fresh medium without drugs. Then, trophozoites were counted with a haemocytometer and the IC50 was calculated by Probit analysis. Experiments were carried out in triplicate and repeated at least twice.

T. vaginalis GT3 strain = test: In vitro susceptibility assay, T. vaginalis trophozoites; format: cell-based, Trichomonas vaginalis
Experimental: as §1

[1] = system: E. histolytica strain HM1-IMSS; test: In vitro susceptibility assay, E. histolytica trophozoites; format: cell-based, Entamoeba histolytica
Experimental: as §1

[2] = system: murine macrophage cell line J774.2; test: Cytotoxic evaluation, MTT colorimetric assay; format: cell-based; settings: murine macrophages J774.2, read-out: Cytotoxicity (Macrophages J774.2) (CC50)
Experimental: The murine macrophage cell line J774.2 was maintained in culture flasks with RPMI 1640 medium supplemented with 10% FBS, and 100 U/mL antibiotic-antifungal mixture (Gibco). Cells were incubated at 37 °C with 5% CO2 and humidity. Murine macrophage cell line J774.2 is maintained at Laboratorio de Estudios Epidemiológicos, Clínicos, Diseños Experimentales e Investigación, Facultad de Ciencias Químicas, Universidad Autónoma “Benito Juárez” de Oaxaca. Macrophages were washed and viability was assessed by the MTT colorimetric assay. In a 96-well microplate, 1 × 10^5 macrophages were added per well and a dose-response assay was performed. Compounds were evaluated using serial dilutions to determine half-maximal cytotoxic concentration (CC50) values in triplicate considering 0.2% DMSO as negative control.

[3] = molecular target: T1, recombinant E. histolytica thioredoxin reductase (EhTRXR) (Entamoeba histolytica, UniProt C4LW95); test: Inhibition of EhTrxR DTNB reductase activity; format: biochemical; settings: for inhibition at 100 µM: pH 7, read-out: EhTrxR inhibitory effect (disulphide reductase activity)
T1 construct: His-tag (pET28a) (N); made in house; host or cells: E. coli BL21 (DE3)
T1 sequence (C4LW95 1-314): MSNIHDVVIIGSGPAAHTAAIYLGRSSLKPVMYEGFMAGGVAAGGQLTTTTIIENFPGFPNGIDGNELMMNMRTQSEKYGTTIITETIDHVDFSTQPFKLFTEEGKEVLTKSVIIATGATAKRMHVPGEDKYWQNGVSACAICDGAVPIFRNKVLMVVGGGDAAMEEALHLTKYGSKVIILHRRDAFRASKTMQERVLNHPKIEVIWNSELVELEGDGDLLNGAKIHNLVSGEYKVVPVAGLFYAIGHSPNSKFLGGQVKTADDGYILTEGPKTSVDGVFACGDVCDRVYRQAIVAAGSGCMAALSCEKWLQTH
Experimental: Recombinant E. histolytica thioredoxin reductase (EhTRXR) was expressed in E. coli BL21 (DE3) as His-tag (N-terminal) recombinant proteins using pET28a vector, and it was purified using IMAC as previously described. 5,5′-Dithiobis(2-nitrobenzoic acid) (DTNB) reductase activity was measured by monitoring the production of thionitrobenzoate at 405 nm in a reaction mixture comprising 50 mM potassium phosphate, pH 7.0, 2 mM EDTA, 300 µM NADPH, 5 mM DTNB, and 0.1 µM EhTRXR. Activity was calculated using the molar extinction coefficient at 405 nm of 13.6 mM^−1cm^− 1 and considering that 1 mol of NADPH yields 2 mol of thionitrobenzoate. The enzyme assays were performed at 30 °C, in a final volume of 50 μL, and using a Multiskan Ascent one-channel vertical light path filter photometer (Thermo Electron Co.). All results represent the arithmetic mean of at three independent experiments.

[4] = Giardia duodenalis, 48 h, read-out: G. lamblia (IC50 nM), trophozoites, 48 h at 37 °C, subcultured 48 h, Probit analysis
[5] = Trichomonas vaginalis, GT3, 48 h, read-out: T. vaginalis (IC50 nM), trophozoites, 48 h at 37 °C, subcultured 48 h, Probit analysis
[6] = Entamoeba histolytica, 48 h, read-out: E. histolytica (IC50 nM), trophozoites, 48 h at 37 °C, subcultured 48 h, Probit analysis
[7] = read-out: E. histolytica (IC50 nM), trophozoites, 48 h at 37 °C, subcultured 48 h, Probit analysis
[8] = read-out: T. vaginalis (IC50 nM), trophozoites, 48 h at 37 °C, subcultured 48 h, Probit analysis

Row | SMILES | IC50 (G. lamblia WB strain; [4]) | IC50 (T. vaginalis GT3 strain; [5]) | IC50 [1, 6] | CC50 [2] | inhibition at 100 µM [3] | IC50 [1, 7] | IC50 (T. vaginalis GT3 strain; [8]) | EhTrxR inhibitory effect (disulphide reductase activity) ([3]; 100 µM compound, 5 mM DTNB, 300 µM NADPH, 30 °C, pH 7.0) | IC50 ([3]; DTNB reductase activity, 30 °C, pH 7.0) | IC50 (G. lamblia WB strain; read-out: G. lamblia (IC50 nM), trophozoites, 48 h at 37 °C, subcultured 48 h, Probit analysis) | Selectivity index, E. histolytica versus macrophages ([1]; CC50 J774.2 / IC50 E. histolytica)
1 | CC(C)COC(=O)c1ccc2c(c1)[n+]([O-])c(C(=O)Nc1ccccc1)c(-c1ccccc1)[n+]2[O-] [Compound T-169] | 98.4 ± 2.19 nM | 116 ± 5.47 nM | 43.7 ± 2.19 nM | > 200000 nM | 50 to 75% | – | – | – | – | – | –
2 | CCCCOC(=O)c1ccc2c(c1)[n+]([O-])c(C(=O)OCc1ccccc1)c(C)[n+]2[O-] [Compound T-141] | 70.7 ± 1.22 nM | 166 ± 6.1 nM | ~40 nM | > 200000 nM | – | 40.2 ± 2.44 nM | – | – | – | – | –
3 | CCCCOC(=O)c1ccc2c(c1)[n+]([O-])c(C(=O)c1ccc3ccccc3c1)c(C(F)(F)F)[n+]2[O-] [Compound T-150] | 51.6 ± 2.27 nM | 124 ± 2.27 nM | 36.1 ± 1.14 nM | > 200000 nM | – | – | – | – | – | – | –
4 | CCCCOC(=O)c1ccc2c(c1)[n+]([O-])c(C(=O)OC)c(C)[n+]2[O-] [Compound T-138] | 48.5 ± 1.5 nM | 88 nM | ~40 nM | 46200 ± 3260 nM | – | 40.4 ± 4.49 nM | 88.3 ± 12 nM | – | – | – | –
5 | CC(C)COC(=O)c1ccc2c(c1)[n+]([O-])c(C(=O)c1ccc3ccccc3c1)c(C(F)(F)F)[n+]2[O-] [Compound T-166] | 41.3 ± 2.07 nM | 82.6 ± 4.13 nM | 50.6 ± 5.17 nM | – | – | – | – | – | – | – | –
6 | CC(C)COC(=O)c1ccc2c(c1)[n+]([O-])c(C(=O)c1ccco1)c(C(F)(F)F)[n+]2[O-] [Compound T-165] | 101 ± 2.36 nM | 125 ± 2.36 nM | 30.6 ± 2.36 nM | 81800 ± 3590 nM | – | – | – | – | – | – | –
7 | Cc1ccc(NC(=O)c2c(C)[n+]([O-])c3ccc(C(=O)OCC(C)C)cc3[n+]2[O-])c(C)c1 [Compound T-159] | 94.5 ± 3.54 nM | 105 ± 1.18 nM | 30.7 ± 5.91 nM | > 200000 nM | – | – | – | low inhibition | – | – | –
8 | COC(=O)c1c(C)[n+]([O-])c2ccc(C(=O)OCC(C)C)cc2[n+]1[O-] [Compound T-156] | 95.8 ± 4.49 nM | 248 ± 5.99 nM | 59.9 ± 5.99 nM | – | – | – | – | – | – | – | –
9 | Cc1c(C(=O)c2ccccc2)[n+]([O-])c2cc(C(=O)OCC(C)C)ccc2[n+]1[O-] [Compound T-157] | 43.4 ± 1.32 nM | 153 ± 6.58 nM | 55.2 ± 5.26 nM | 34200 ± 3040 nM | 50 to 75% | – | – | – | – | – | –
10 | CC(C)COC(=O)c1ccc2c(c1)[n+]([O-])c(C(=O)c1ccccc1)c(C(F)(F)F)[n+]2[O-] [Compound T-163] | 34.5 ± 2.3 nM | 100 ± 5.76 nM | 57.6 ± 2.3 nM | – | 50 to 75% | – | – | – | – | – | –
11 | CCCCOC(=O)c1ccc2c(c1)[n+]([O-])c(C(=O)c1ccccc1)c(C(F)(F)F)[n+]2[O-] [Compound T-148] | 39.2 ± 3.46 nM | < 90 nM | 16.1 ± 3.46 nM | 48400 ± 1650 nM | 50 to 75% | – | 82.9 ± 8.06 nM | – | – | – | –
12 | CCCCOC(=O)c1ccc2c(c1)[n+]([O-])c(C(C)=O)c(C)[n+]2[O-] [Compound T-137] | 77 ± 9.43 nM | 258 ± 6.29 nM | 83.3 ± 1.57 nM | 58400 ± 1120 nM | – | – | – | – | – | – | –
13 | CC(=O)c1c(C)[n+]([O-])c2ccc(C(=O)OCC(C)C)cc2[n+]1[O-] [Compound T-155] | – | 192 ± 6.29 nM | 58.2 ± 1.57 nM | 87220 ± 213 nM | 50 to 75% | – | – | – | – | – | –
14 | CC(C)COC(=O)c1ccc2c(c1)[n+]([O-])c(C(=O)c1cccs1)c(C(F)(F)F)[n+]2[O-] [Compound T-164] | 107 ± 9.21 nM | 118 ± 10.5 nM | 27.3 ± 5.26 nM | 43800 ± 1890 nM | – | – | – | – | – | – | –
15 | CCCCOC(=O)c1ccc2c(c1)[n+]([O-])c(C(=O)OCC)c(C)[n+]2[O-] [Compound T-139] | 47.4 ± 5.75 nM | ~100 nM | ~30 nM | > 200000 nM | – | 34.5 ± 7.18 nM | 103 ± 2.87 nM | – | – | – | –
16 | CCCCOC(=O)c1ccc2c(c1)[n+]([O-])c(C(=O)Nc1ccccc1)c(-c1ccccc1)[n+]2[O-] [Compound T-151] | 114 ± 4.38 nM | 153 ± 3.28 nM | 65.6 ± 2.19 nM | 44100 ± 3450 nM | – | – | – | – | – | – | –
17 | Cc1c(C(=O)Nc2ccccc2)[n+]([O-])c2cc(C(=O)OCC(C)C)ccc2[n+]1[O-] [Compound T-158] | 62 ± 1.27 nM | 164 ± 10.1 nM | 38 ± 2.53 nM | > 200000 nM | – | – | – | – | – | – | –
18 | CCCCOC(=O)c1ccc2c(c1)[n+]([O-])c(C(C)=O)c(C(F)(F)F)[n+]2[O-] [Compound T-145] | 40.3 ± 6.72 nM | 108 ± 16.1 nM | 57.8 ± 6.72 nM | > 200000 nM | > 75% | – | – | – | 16000 nM | – | –
19 | CCCCOC(=O)c1ccc2c(c1)[n+]([O-])c(C(=O)Nc1ccc(C)cc1C)c(C)[n+]2[O-] [Compound T-144] | 46.1 ± 1.18 nM | 118 ± 4.73 nM | 47.3 ± 4.73 nM | – | – | – | – | – | – | – | –
20 | CCCCOC(=O)c1ccc2c(c1)[n+]([O-])c(C(=O)c1cccs1)c(C(F)(F)F)[n+]2[O-] [Compound T-149] | < 30 nM | 97.7 ± 9.09 nM | 18.2 ± 2.27 nM | – | 50 to 75% | – | – | – | – | 27.3 ± 2.27 nM | –
21 | Cc1ncc([N+](=O)[O-])n1CCO [Metronidazole, reference compound] | 1150 ± 40.9 nM | 210 ± 8.76 nM | 251 ± 5.48 nM | – | – | – | – | – | – | – | –
22 | CCCCOC(=O)c1ccc2c(c1)[n+]([O-])c(C(=O)OC(C)(C)C)c(C)[n+]2[O-] [Compound T-140] | 49.2 ± 2.66 nM | ~100 nM | ~30 nM | > 200000 nM | 50 to 75% | 29.2 ± 2.66 nM | 101 ± 3.99 nM | – | – | – | –
23 | CCCCOC(=O)c1ccc2c(c1)[n+]([O-])c(C(=O)c1ccccc1)c(C)[n+]2[O-] [Compound T-142] | 36.8 ± 0.66 nM | < 90 nM | 9.2 ± 1.32 nM | 17600 ± 2140 nM | 50 to 75% | – | 81.5 ± 3.95 nM | – | – | – | 1918 fold
24 | CCCSc1ccc2nc(NC(=O)OC)[nH]c2c1 [Albendazole, reference compound] | 49 ± 5.65 nM | 1830 ± 86.7 nM | 44000 ± 2470 nM | – | – | – | – | – | – | – | –
